Our source for the IC50 and Activity values is ChEMBL document CHEMBL4052796, “Design, synthesis and biological evaluation of dual acetylcholinesterase and phosphodiesterase 5A inhibitors in treatment for Alzheimer's disease” (Bioorg Med Chem Lett, 2017).

One data set has as its target Acetylcholinesterase (Homo sapiens, UniProt P22303). The data set can be described thus: Inhibition of AChE (unknown origin) using acetylthiocholine as substrate by Ellman's method. In general terms: DTNB colorimetry detects thiols as they appear.
Data set [1] has as its target cGMP-specific 3',5'-cyclic phosphodiesterase (Homo sapiens, UniProt O76074). The experiment in a line: Inhibition of human PDE5A preincubated for 30 mins followed by TMB substrate addition by spectrophotometry.
Another data set relates to A549. The experiment in a line: Cytotoxicity against human A549 cells at 50 ug/ml after 24 hrs by CCK-8 assay. Format: cell-based. The following applies: a549, 24 h. (Tetrazolium dyes change colour on reduction, which living cells bring about.)

Acetylcholinesterase, sequence (P22303 whole entry): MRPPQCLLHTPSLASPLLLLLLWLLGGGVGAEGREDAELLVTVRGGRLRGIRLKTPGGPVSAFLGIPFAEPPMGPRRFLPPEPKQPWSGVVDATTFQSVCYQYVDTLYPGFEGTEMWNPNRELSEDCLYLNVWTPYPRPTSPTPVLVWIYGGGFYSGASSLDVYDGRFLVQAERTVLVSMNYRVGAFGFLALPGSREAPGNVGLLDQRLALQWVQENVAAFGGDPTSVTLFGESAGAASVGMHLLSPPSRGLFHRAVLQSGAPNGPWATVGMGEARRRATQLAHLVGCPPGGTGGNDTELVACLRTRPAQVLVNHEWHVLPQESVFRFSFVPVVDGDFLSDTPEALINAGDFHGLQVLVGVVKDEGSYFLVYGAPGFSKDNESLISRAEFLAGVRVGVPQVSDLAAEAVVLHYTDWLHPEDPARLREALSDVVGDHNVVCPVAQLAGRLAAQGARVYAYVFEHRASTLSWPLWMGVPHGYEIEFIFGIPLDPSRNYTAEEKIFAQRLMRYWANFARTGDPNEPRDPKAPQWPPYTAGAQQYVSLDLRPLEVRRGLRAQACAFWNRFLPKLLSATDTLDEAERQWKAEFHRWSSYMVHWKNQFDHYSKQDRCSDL

Usually IC50 stands for the midpoint of a concentration-inhibition curve. For `CCN(CC)Cc1ccc(NC(=O)c2ccccc2)c(C(=O)C(=O)N(CC)CC)c1`, the values for the IC50 (on Acetylcholinesterase; in data set [1]) were 0.0447 µM and 158 µM, respectively. The Activity entry in the data set with A549 is on record as “Non-Toxic”.
`O=C1C(=O)N(C(=O)c2ccccc2)c2ccc(CN3CCCCC3)cc21`: the IC50 against Acetylcholinesterase turned out to be 0.0794 µM; in data set [1], 50 µM. Moreover, the Activity result with A549 is reported as “Non-Toxic”.
`Cc1ccc2c(c1)C(=O)C(=O)N2Cc1ccc(Br)cc1` came in with an IC50 on Acetylcholinesterase of 0.204 µM.
`COc1ccc(NCc2ccc3c(c2)C(=O)C(=O)N3C(=O)c2ccccc2)cc1`: the figures for the half-inhibitory concentration (IC50) (against Acetylcholinesterase; in data set [1]) were 0.17 µM and 100 µM, respectively.
Take `O=C1C(=O)N(Cc2ccccc2[N+](=O)[O-])c2ccc(Br)cc21`: at Acetylcholinesterase, it took 0.263 µM to reach half-maximal inhibition (IC50).
The molecule `O=C1C(=O)N(C(=O)c2ccccc2)c2ccc(CNc3ccc(Br)cc3)cc21` came in with an IC50 against Acetylcholinesterase of 0.398 µM.
In the case of `Cc1ccc2c(c1)C(=O)C(=O)N2C(=O)N(C)C`, the IC50 against Acetylcholinesterase amounted to 0.144 µM; in data set [1], 100 µM. Also, in the data set on A549, the Activity result was “Non-Toxic”.
Consider `Cc1ccc2c(c1)CC(=O)N2C(=O)c1ccccc1`, for which the IC50 against Acetylcholinesterase is greater than 1 µM; in data set [1], 91.2 µM.
For `Cc1ccc2c(c1)C(=O)C(=O)N2Cc1ccccc1[N+](=O)[O-]`, the IC50 against Acetylcholinesterase stood at 0.2 µM; in data set [1] it was 200 µM.
In the case of `O=C1C(=O)N(Cc2ccc(Br)cc2)c2ccc(Br)cc21`, the half-maximal inhibitory concentration (IC50) at Acetylcholinesterase came to 0.0891 µM; in data set [1] it was 131 µM.
The corresponding values for `O=C(O)CCC(=O)NCc1ccc2c(c1)CC(=O)N2C(=O)c1ccccc1` are greater than 1 µM and 17.6 µM.
The corresponding values for `Cc1ccc2c(c1)C(=O)C(=O)N2C(=O)c1ccccc1` are greater than 1 µM and 746 µM.
Take `COC(=O)C(=O)c1cc(C)ccc1NC(=O)c1ccccc1`: the half-inhibitory concentration (IC50) against Acetylcholinesterase is greater than 1 µM.
As to `CN1CCN(Cc2ccc3c(c2)C(=O)C(=O)N3C(=O)c2ccccc2)CC1`, the figures for the concentration for half-maximal inhibition (IC50) (at Acetylcholinesterase; in data set [1]) were 0.0479 µM and greater than 1000 µM, respectively.
In the case of `O=C(Nc1ccc(CN2CCOCC2)cc1C(=O)C(=O)N1C(=O)CCC1=O)c1ccccc1`, on Acetylcholinesterase, the half-maximal inhibitory concentration (IC50) worked out at 0.229 µM.
